Data on ten compounds can be found in patent US20230159453A1 (COCRYSTAL PHARMA, INC., priority 2020, published 2023).

Each structure is given as a SMILES string.

The assay has as its target SARS2 protease (Severe acute respiratory syndrome coronavirus 2, UniProt P0DTD1). Put plainly: SARS-CoV-2 protease inhibition assay (SARS2 FRET protease assay). Type of assay: biochemical. The note with it: SARS-CoV-2 protease 25 nM, FRET, peptide substrate 1.3 μM, 30 minutes at 30° C., compounds 20 μM to 1.0 nM; read-out: IC50.
On to `CC(=O)N1CCC2(CC1)C[C@@H](C[C@H](NC(=O)[C@H](CC1CCCCC1)NC(=O)c1cc3ccccc3[nH]1)C(=O)C(N)=O)C(=O)N2` [Compound C121, N—((S)-1-(((S)-1-((R)-8-acetyl-2-oxo-1,8-diazaspiro[4.5]decan-3-yl)-4-amino-3,4-dioxobutan-2-yl)amino)-3-cyclohexyl-1-oxopropan-2-yl)-1H-indole-2-carboxamide], for which the IC50 was 178 nM.
`CC(C)(c1cccc(Cl)c1)C(OC(=O)N[C@@H](CC1CCCCC1)C(=O)N[C@@H](C[C@@H]1CCNC1=O)C(=O)C(N)=O)c1ccc2ccccc2c1` (stereo partly drawn) [Compound C122, 2-(3-Chlorophenyl)-2-methyl-1-(naphthalen-2-yl)propyl ((S)-1-(((S)-4-amino-3,4-dioxo-1-((S)-2-oxopyrrolidin-3-yl)butan-2-yl)amino)-3-cyclohexyl-1-oxopropan-2-yl)carbamate]: the IC50 was 456 nM.
For `CC1(C)CC(CC(NC(=O)[C@H](CC2CCCCC2)NC(=O)c2cc3ccccc3[nH]2)C(=O)C(N)=O)C(=O)N1` (stereo partly drawn) [Compound C123, N-((2S)-1-((4-amino-1-(5,5-dimethyl-2-oxopyrrolidin-3-yl)-3,4-dioxobutan-2-yl)amino)-3-cyclohexyl-1-oxopropan-2-yl)-1H-indole-2-carboxamide] the value was 294 nM; for `Cc1cccc(C(OC(=O)N[C@@H](CC2CCCCC2)C(=O)N[C@@H](C[C@@H]2CCNC2=O)C(=O)C(N)=O)C(C)(C)c2cccc(Cl)c2)c1` (stereo partly drawn) [Compound C124, 2-(3-chlorophenyl)-2-methyl-1-(m-tolyl)propyl ((S)-1-(((S)-4-amino-3,4-dioxo-1-((S)-2-oxopyrrolidin-3-yl)butan-2-yl)amino)-3-cyclohexyl-1-oxopropan-2-yl) carbamate], 324 nM.
Turning to `CC(=O)N1CCC2(CC1)C[C@H](C[C@H](NC(=O)[C@H](CC1CCCCC1)NC(=O)c1cc3ccccc3[nH]1)C(=O)C(N)=O)C(=O)N2` [Compound C125, N—((S)-1-(((S)-1-((S)-8-acetyl-2-oxo-1,8-diazaspiro[4.5]decan-3-yl)-4-amino-3,4-dioxobutan-2-yl)amino)-3-cyclohexyl-1-oxopropan-2-yl)-1H-indole-2-carboxamide], the concentration for half-maximal inhibition (IC50) turned out to be 20.1 nM.
Then `CC(=O)N1CCC2(CC1)CC(CC(NC(=O)[C@H](CC1CCCCC1)NC(=O)c1cc3cc(Cl)ccc3[nH]1)C(=O)C(N)=O)C(=O)N2` (stereo partly drawn) [Compound C126, N-((2S)-1-((1-(8-acetyl-2-oxo-1,8-diazaspiro[4.5]decan-3-yl)-4-amino-3,4-dioxobutan-2-yl)amino)-3-cyclohexyl-1-oxopropan-2-yl)-5-chloro-1H-indole-2-carboxamide], with 1190 nM.
Then `CC(C)(c1cccc(Cl)c1)C(OC(=O)N[C@@H](CC1CCCCC1)C(=O)N[C@H](C=O)C[C@@H]1CCNC1=O)c1ccc2ccccc2c1` (stereo partly shown) [Compound C127], with 3.6 nM; and `CC(C)CN1C(=O)N[C@@H](C[C@@H]2CCNC2=O)C(O)N1C(=O)OCc1ccccc1` (stereo partly drawn) [Compound C129, Benzyl (5S)-6-hydroxy-2-isobutyl-3-oxo-5-(((S)-2-oxopyrrolidin-3-yl)methyl)-1,2,4-triazinane-1-carboxylate], with > 20000 nM.
For `CC(C)(c1cccc(Cl)c1)C(OC(=O)N[C@@H](CC1CCCCC1)C(=O)N[C@@H](C[C@@H]1CCNC1=O)C(=O)C(N)=O)c1ccc2c(c1)CCC2` (stereo partly drawn) [Compound C131, 2-(3-Chlorophenyl)-1-(2,3-dihydro-1H-inden-5-yl)-2-methylpropyl ((S)-1-(((S)-4-amino-3,4-dioxo-1-((S)-2-oxopyrrolidin-3-yl)butan-2-yl)amino)-3-cyclohexyl-1-oxopropan-2-yl)carbamate] the value was 15800 nM.
For the compound `CC(C)(c1cccc(Cl)c1)C(OC(=O)N[C@@H](CC1CCCCC1)C(=O)N[C@H](C=O)C[C@@H]1CCNC1=O)c1ccc2c(c1)CCC2` (stereo partly drawn) [Compound C132, 2-(3-Chlorophenyl)-1-(2,3-dihydro-1H-inden-5-yl)-2-methylpropyl ((S)-3-cyclohexyl-1-oxo-1-(((S)-1-oxo-3-((S)-2-oxopyrrolidin-3-yl)propan-2-yl)amino)propan-2-yl)carbamate], the IC50 was 60 nM.
